According to publication PMC10439028, “SGLT5 is the renal transporter for 1,5-anhydroglucitol, a major player in two rare forms of neutropenia” (Cellular and Molecular Life Sciences: CMLS, 2023):

Molecular target: T1, SGLT5-TM (S70N–E71I–L75H) (Homo sapiens, UniProt A0PJK1, E71I/L75H/S70N)
T1 construct: pUB83-hSGLT5-iso2 as well as the various SGLT5 mutants obtained were used to transduce HEK293T cells; expressed in transfected cells; host or cells: HEK293T, lentiviral transduction (pUB83)
Experiment: Inhibition of 10 µM 1,5-AG transport by triple mutant SGLT5-TM (S70N-E71I-L75H)
Format: cell-based
Experimental: The transport experiments to study the specificity of SGLT4 or SGLT5, were performed in the presence of 10 µM U-[^14C + ^12C]-mannose (for SGLT4) or 2-[^3H + ^1H]-1,5-AG (for SGLT5) and increasing concentrations of various sugars tested. The transport experiments to study the inhibition of empagliflozin, dapagliflozin or remogliflozin, on the transport of 1,5-AG by SGLT5 or its variants were performed in the presence of 10 µM 2-[^3H + ^1H]-1,5-AG and increasing concentrations of the various gliflozins tested.
SGLT5 mutants were created using the quick-change site directed mutagenesis method that enables effective mutagenesis without subcloning of the amplified PCR products. Complementary primer pairs carrying the desired replacements (Supplementary Table 3) were designed using an online tool (https://www.agilent.com/store/primerDesignProgram.jsp). The PCR protocol was carried out following the manufacturer instructions regarding the KOD HOT Start polymerase kit (TOYOBO™, Novagen). The amplified DNA was cleaned-up from the reactions constituents using the GeneJET PCR purification Kit (Thermo Scientific™) and the size of the DNA fragment were verified by DNA agarose-gel electrophoresis. After eliminating the parental DNA by digesting the purified DNA with the DpnI restriction enzyme, the DNA fragments containing the appropriate changes were transformed in E. coli NEB Turbo competent cells (C2984H). Once colonies were obtained, plasmid DNA was finally amplified, purified and sequenced to verify that the required changes had been introduced and eliminate any PCR errors. Next, pUB83-hSGLT5-iso2 as well as the various SGLT5 mutants obtained were used to transduce HEK293T cells using the exact same protocol as described above to create model cell lines overexpressing the different SGLT5 transporters.
Supplementary Fig. 7: Substrate specificity of SGLT5 - impact of replacing specific and conserved substrate binding residues in human SGLT5 by the equivalent ones in […]
When shown, the IC50 values are derived from inhibition curves showing the transport activity of 1,5-AG by the indicated SGLT5 mutants. Values show the concentration needed of the various sugars to inhibit by 50% the transport activity of 10 µM 2-[1H+3H]-1,5-AG. When the inhibition was too weak to derive IC50 values, the inhibition of the transport of 1,5-AG with the indicated concentration of the inhibitor-sugar is shown. Of note, despite having a lower […]
µM). These apparently contradictory changes are not necessarily surprising: in the case of enzymes, there are multiple examples of mutations that, at the same time, increase the apparent affinity (decrease the Km) of an enzyme for its substrate while decreasing the Vmax.
Measurement of transport activities and the description of the structures of the various inhibitory sugars used are as in Fig. 3C. Data corresponds to n = 3 in at least 2 independent […]
(1 picture or pasted object on this page, not shown here)

T1 sequence (A0PJK1 whole entry S70N/E71I/L75H): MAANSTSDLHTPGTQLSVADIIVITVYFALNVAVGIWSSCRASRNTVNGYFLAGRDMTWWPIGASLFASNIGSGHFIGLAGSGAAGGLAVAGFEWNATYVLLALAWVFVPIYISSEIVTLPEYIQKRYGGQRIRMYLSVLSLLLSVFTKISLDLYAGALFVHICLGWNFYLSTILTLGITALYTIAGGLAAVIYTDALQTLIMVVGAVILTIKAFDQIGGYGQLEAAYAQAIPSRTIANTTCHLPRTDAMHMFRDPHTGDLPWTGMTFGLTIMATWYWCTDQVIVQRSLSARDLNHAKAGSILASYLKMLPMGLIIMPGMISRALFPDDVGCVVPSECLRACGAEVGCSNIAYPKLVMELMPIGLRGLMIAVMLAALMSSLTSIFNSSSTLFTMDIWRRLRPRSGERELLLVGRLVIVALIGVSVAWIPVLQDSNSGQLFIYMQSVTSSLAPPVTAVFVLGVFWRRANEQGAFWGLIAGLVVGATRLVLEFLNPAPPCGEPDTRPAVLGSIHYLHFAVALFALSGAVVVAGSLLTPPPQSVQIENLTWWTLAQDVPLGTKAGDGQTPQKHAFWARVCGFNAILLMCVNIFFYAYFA

| SMILES | IC50 for 1,5-AG lower than the IC50 for SGLT5-WT (33 µM versus 162 µM) [fold] | inhibition of SGLT5-TM (competition experiments, Supplementary Fig. 7) | loss of affinity of SGLT5-TM (versus wild-type SGLT5, competition experiments, Supplementary Fig. 7) |
| --- | --- | --- | --- |
| OC[C@H]1OC[C@H](O)[C@@H](O)[C@@H]1O [1,5-AG, 1,5-anhydroglucitol] | 5 | still being inhibited |  |
| OC[C@H]1OC(O)[C@@H](O)[C@@H](O)[C@@H]1O (stereo partly drawn) [Mannose, mannose] |  |  | tenfold |
